Like-named read-outs stand apart in the source and are kept apart here.
Test system: T47D pAKT (S473), PI3Kα H1047R mutation present
Assay: HTRF pAKT-T47D;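 note: assay medium was RPMI with 10% FBS and 0.2 units/ml bovine insulin, without phenol red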
[1] = read-out: T47D pAKT IC50, T47D.1 cells, pAKT (S473) HTRF, 1 hour
[2] = Homo sapiens, T47D, 1 h, read-out: T47D pAKT IC50 (nM), T47D.1 cells, pAKT (S473) HTRF, 1 hour

| Structure (SMILES) | IC50 [1] [nM] | IC50 [2] [nM] |
| --- | --- | --- |
| Cc1c(C(NC(=O)Nc2cnc(N3CCNC(=O)C3)nc2)C(F)(F)F)oc2c(F)cc(F)cc12 (single isomer, unassigned) [Compound 190, 1-(1-(5,7-difluoro-3-methylbenzofuran-2-yl)-2,2,2-trifluoroethyl)-3-(2-(3-oxopiperazin-1-yl)pyrimidin-5-yl)urea] | > 5000 |  |
| Cc1c(C(NC(=O)Nc2cnc(N3CCC(O)CC3)nc2)C(F)(F)F)oc2c(F)cc(F)cc12 (single isomer, unassigned) [Compound 191] |  | 1000 to 5000 |
| Cc1c(C(NC(=O)Nc2cnc(N3CCC(O)CC3)nc2)C(F)(F)F)oc2c(F)cc(F)cc12 (single isomer, unassigned) [Compound 192] | < 1000 |  |
| Cc1c(C(NC(=O)Nc2cnc(N[C@@H](C)CO)nc2)C(F)(F)F)oc2c(F)cc(F)cc12 (single isomer, unassigned) [Compound 195] | > 5000 |  |
| Cc1c(C(NC(=O)Nc2cnc(N[C@@H](C)CO)nc2)C(F)(F)F)oc2c(F)cc(F)cc12 (single isomer, unassigned) [Compound 196] | < 1000 |  |
| Cc1c(C(NC(=O)Nc2cnc(N3CC(C(=O)O)C3)nc2)C(F)(F)F)oc2c(F)cc(F)cc12 (single isomer, unassigned) [Compound 197, 1-[5-({[1-(5,7-difluoro-3-methyl-1-benzofuran-2-yl)-2,2,2-trifluoroethyl]carbamoyl}amino)pyrimidin-2-yl]azetidine-3-carboxylic acid] | < 1000 |  |
| Cc1c(C(NC(=O)Nc2cnc(N3CC(C(=O)O)C3)nc2)C(F)(F)F)oc2c(F)cc(F)cc12 (single isomer, unassigned) [Compound 198, 1-[5-({[1-(5,7-difluoro-3-methyl-1-benzofuran-2-yl)-2,2,2-trifluoroethyl]carbamoyl}amino)pyrimidin-2-yl]azetidine-3-carboxylic acid] | > 5000 |  |
| Cc1c(C(NC(=O)Nc2cnc(N3CC(O)C3)nc2)C(F)(F)F)oc2c(Cl)cc(F)cc12 (single isomer, unassigned) [Compound 199, 3-[1-(7-chloro-5-fluoro-3-methyl-1-benzofuran-2-yl)-2,2,2-trifluoroethyl]-1-[2-(3-hydroxyazetidin-1-yl)pyrimidin-5-yl] urea] | > 5000 |  |
| CNC(=O)c1ncc(NC(=O)N[C@H](c2oc3ccc(F)cc3c2C)C(C)C)cn1 [Compound 77, (S)-5-(3-(1-(5-fluoro-3-methylbenzofuran-2-yl)-2-methylpropyl)ureido)-N-methylpyrimidine-2-carboxamide] |  | 1000 to 5000 |
| Cc1c([C@@H](NC(=O)Nc2cnc(C(N)=O)nc2)C(C)C)oc2ccc(F)cc12 [Compound 78, (S)-5-(3-(1-(5-fluoro-3-methylbenzofuran-2-yl)-2-methylpropyl)ureido)pyrimidine-2-carboxamide] |  | 1000 to 5000 |
| Cc1c([C@@H](NC(=O)Nc2cnc(N)nc2)C2(F)CC2)oc2ccc(F)cc12 [Compound 81, (R)-1-(2-aminopyrimidin-5-yl)-3-((5-fluoro-3-methylbenzofuran-2-yl)(1-fluorocyclopropyl)methyl)urea] |  | < 1000 |
| Cc1c([C@@H](NC(=O)Nc2cnc(N)nc2)C2(C)CC2)oc2ccc(F)cc12 [Compound 84, (S)-1-(2-aminopyrimidin-5-yl)-3-((5-fluoro-3-methylbenzofuran-2-yl)(1-methylcyclopropyl)methyl)urea] |  | < 1000 |
| Cc1c([C@@H](NC(=O)Nc2ncc(N)cn2)C(C)(C)C)oc2ccc(F)cc12 [Compound 86, (S)-1-(5-aminopyrimidin-2-yl)-3-(1-(5-fluoro-3-methylbenzofuran-2-yl)-2,2-dimethylpropyl)urea] |  | < 1000 |
| Cc1c([C@@H](NC(=O)Nc2cnc(N3CC(O)C3)nc2)C(C)C)oc2ccc(F)cc12 [Compound 87, (S)-1-(1-(5-fluoro-3-methylbenzofuran-2-yl)-2-methylpropyl)-3-(2-(3-hydroxyazetidin-1-yl)pyrimidin-5-yl)urea] |  | < 1000 |
| Cc1c([C@@H](NC(=O)Nc2cnc(N3CC(O)C3)nc2)C(F)(F)F)oc2ccc(F)cc12 [Compound 89, (R)-1-(2-(3-hydroxyazetidin-1-yl)pyrimidin-5-yl)-3-(2,2,2-trifluoro-1-(5-fluoro-3-methylbenzofuran-2-yl)ethyl)urea] |  | < 1000 |

Results, then the compound that gave them:

| IC50 [1] [nM] | IC50 [2] [nM] | Structure (SMILES) |
| --- | --- | --- |
| < 1000 |  | Cc1c(C(NC(=O)Nc2cnc(N3CC(O)C3)nc2)C(F)(F)F)oc2c(Cl)cc(F)cc12 (single isomer, unassigned) [Compound 200, 3-[1-(7-chloro-5-fluoro-3-methyl-1-benzofuran-2-yl)-2,2,2-trifluoroethyl]-1-[2-(3-hydroxyazetidin-1-yl)pyrimidin-5-yl] urea] |
| > 5000 |  | Cc1c(C(NC(=O)Nc2cnc(N3CC(C)(O)C3)nc2)C(F)(F)F)oc2c(Cl)cc(F)cc12 (single isomer, unassigned) [Compound 201, 1-(1-(7-chloro-5-fluoro-3-methylbenzofuran-2-yl)-2,2,2-trifluoroethyl)-3-(2-(3-hydroxy-3-methylazetidin-1-yl)pyrimidin-5-yl)urea] |
| < 1000 |  | Cc1c(C(NC(=O)Nc2cnc(N3CC(C)(O)C3)nc2)C(F)(F)F)oc2c(Cl)cc(F)cc12 (single isomer, unassigned) [Compound 202, 1-(1-(7-chloro-5-fluoro-3-methylbenzofuran-2-yl)-2,2,2-trifluoroethyl)-3-(2-(3-hydroxy-3-methylazetidin-1-yl)pyrimidin-5-yl)urea] |
| > 5000 |  | Cc1c(C(NC(=O)Nc2cnc(N)nc2)C(F)(F)F)oc2c(C)cc(F)cc12 (single isomer, unassigned) [Compound 213, 1-(2-aminopyrimidin-5-yl)-3-[2,2,2-trifluoro-1-(5-fluoro-3,7-dimethyl-1-benzofuran-2-yl)ethyl]urea] |
| < 1000 |  | Cc1c(C(NC(=O)Nc2cnc(N)nc2)C(F)(F)F)oc2c(C)cc(F)cc12 (single isomer, unassigned) [Compound 214, 1-(2-aminopyrimidin-5-yl)-3-[2,2,2-trifluoro-1-(5-fluoro-3,7-dimethyl-1-benzofuran-2-yl)ethyl]urea] |
|  | 1000 to 5000 | Cc1c(C(NC(=O)Nc2cnc(N)nc2)C(F)(F)F)oc2c(Br)cc(F)cc12 (single isomer, unassigned) [Compound 215, 1-(2-aminopyrimidin-5-yl)-3-[1-(7-bromo-5-fluoro-3-methyl-1-benzofuran-2-yl)-2,2,2-trifluoroethyl]urea] |
| < 1000 |  | Cc1c(C(NC(=O)Nc2cnc(N)nc2)C(F)(F)F)oc2c(Br)cc(F)cc12 (single isomer, unassigned) [Compound 216, 1-(2-aminopyrimidin-5-yl)-3-[1-(7-bromo-5-fluoro-3-methyl-1-benzofuran-2-yl)-2,2,2-trifluoroethyl]urea] |
| > 5000 |  | Cc1c(C(NC(=O)Nc2cnc(N)nc2)C(F)(F)F)oc2c(C3CC3)cc(F)cc12 (single isomer, unassigned) [Compound 217, 1-(2-aminopyrimidin-5-yl)-3-[1-(7-cyclopropyl-5-fluoro-3-methyl-1-benzofuran-2-yl)-2,2,2-trifluoroethyl]urea] |
| < 1000 |  | Cc1c(C(NC(=O)Nc2cnc(N)nc2)C(F)(F)F)oc2c(C3CC3)cc(F)cc12 (single isomer, unassigned) [Compound 218, 1-(2-aminopyrimidin-5-yl)-3-[1-(7-cyclopropyl-5-fluoro-3-methyl-1-benzofuran-2-yl)-2,2,2-trifluoroethyl]urea] |
|  | 1000 to 5000 | Cc1c(C(NC(=O)Nc2cnc(N)nc2)C(F)(F)F)oc2c(C#N)cc(F)cc12 (single isomer, unassigned) [Compound 219, 1-(2-aminopyrimidin-5-yl)-3-[1-(7-cyano-5-fluoro-3-methyl-1-benzofuran-2-yl)-2,2,2-trifluoroethyl]urea] |
| < 1000 |  | Cc1c(C(NC(=O)Nc2cnc(N)nc2)C(F)(F)F)oc2c(C#N)cc(F)cc12 (single isomer, unassigned) [Compound 220, 1-(2-aminopyrimidin-5-yl)-3-[1-(7-cyano-5-fluoro-3-methyl-1-benzofuran-2-yl)-2,2,2-trifluoroethyl]urea] |
|  | 1000 to 5000 | Cc1c(C(NC(=O)Nc2ccc(N)cc2)C(F)(F)F)oc2c(F)cc(F)cc12 (single isomer, unassigned) [Compound 221, 1-(4-aminophenyl)-3-(1-(5,7-difluoro-3-methylbenzofuran-2-yl)-2,2,2-trifluoroethyl)urea] |
| < 1000 |  | Cc1c(C(NC(=O)Nc2ccc(N)cc2)C(F)(F)F)oc2c(F)cc(F)cc12 (single isomer, unassigned) [Compound 222, 1-(4-aminophenyl)-3-(1-(5,7-difluoro-3-methylbenzofuran-2-yl)-2,2,2-trifluoroethyl)urea] |
|  | < 1000 | Cc1c(C(NC(=O)Nc2cnc(N3CCC3)nc2)C(F)(F)F)oc2c(F)cc(F)cc12 (single isomer, unassigned) [Compound 223, 1-(2-(azetidin-1-yl)pyrimidin-5-yl)-3-(1-(5,7-difluoro-3-methylbenzofuran-2-yl)-2,2,2-trifluoroethyl)urea] |
| 1000 to 5000 |  | Cc1c(C(NC(=O)Nc2cnc(N3CCC3)nc2)C(F)(F)F)oc2c(F)cc(F)cc12 (single isomer, unassigned) [Compound 224, 1-(2-(azetidin-1-yl)pyrimidin-5-yl)-3-(1-(5,7-difluoro-3-methylbenzofuran-2-yl)-2,2,2-trifluoroethyl)urea] |
|  | 1000 to 5000 | Cc1c(C(NC(=O)Nc2cnc(N3CC(F)C3)nc2)C(F)(F)F)oc2c(F)cc(F)cc12 (single isomer, unassigned) [Compound 225, 1-(1-(5,7-difluoro-3-methylbenzofuran-2-yl)-2,2,2-trifluoroethyl)-3-(2-(3-fluoroazetidin-1-yl)pyrimidin-5-yl)urea] |
| < 1000 |  | Cc1c(C(NC(=O)Nc2cnc(N3CC(F)C3)nc2)C(F)(F)F)oc2c(F)cc(F)cc12 (single isomer, unassigned) [Compound 226, 1-(1-(5,7-difluoro-3-methylbenzofuran-2-yl)-2,2,2-trifluoroethyl)-3-(2-(3-fluoroazetidin-1-yl)pyrimidin-5-yl)urea] |
